# Assay: recombinant barcode read abundance after kanamycin selection (control-corrected) (log10(CPM+1)); higher = more efficient recombination; sequences stand for … in AGTGCAGAGAAAATCGGCCAGTTTTCTCTGCCTGCAGTCCGCATGCCGT…AGATTTATGCAGCGGACTGCCTTTCTCCCAAAGTGATAAACCGGACAGTATCATGGACCGGTTTTCCCGGTAATCCGTATTTGCAAGGTTGGTTTCACT; site = the 11-nt target
# In short: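 Recombination efficiency draws on barcodes counted at recombinant junctions in a pooled E. coli screen of targets paired with IS621 bridge RNA target-binding loops. The counts were converted to counts per million, averaged and corrected against the chloramphenicol/ampicillin LB agar control, then reported as log10(CPM+1). Selection plates held chloramphenicol/ampicillin/kanamycin with 0.1 mM IPTG, with two replicates per condition.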
# 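Also: IS621 recombinase and bridge RNA in Escherichia coli cells.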
row,Sequence,recombinant barcode read abundance (log10)
1,CAGCATACTTGGGTTCTAACCTGTTGCCT (site CAGCATACTAG),1.74
2,CAGCATACTTGGGTTCTAACCTGTTGCCT (site CCGCATACTAG),0.159
3,CAGCATACTTGGGTTCTAACCTGTTGCCT (site CGGCATACTAG),0.215
4,CAGCATACTTGGGTTCTAACCTGTTGCCT (site CTGCATACTAG),0.0255
5,CAGCCCTCTTGGGTTCTAACCTGTTGCTA (site CAGCCCTCTTA),2.75
6,CAGCCCTCTTGGGTTCTAACCTGTTGCTA (site CCGCCCTCTAA),0.188
7,CAGCCTTCTTGGGTTCTAACCTGTTGCTT (site CAGCCTTCTAA),0.718
8,CAGCCTTCTTGGGTTCTAACCTGTTGCTT (site CATCCTCCTAA),0.0417
9,CAGCGTGCTTGGGTTCTAACCTGTTGCCT (site CAGCGTGCTAG),0.838
10,CAGCGTGCTTGGGTTCTAACCTGTTGCCT (site CCGCGTGCTAG),0.318
11,CAGCGTGCTTGGGTTCTAACCTGTTGCCT (site CGGCGTGCTAG),0.216
12,CAGCGTGCTTGGGTTCTAACCTGTTGCCT (site CTGCGTGCTAG),0.612
13,CAGGAACCTTGGGTTCTAACCTGTTGCCT (site AAGGAACCTAG),0.15
14,CAGGAACCTTGGGTTCTAACCTGTTGCCT (site CAGGAACCTAG),2.01
15,CAGGAACCTTGGGTTCTAACCTGTTGCCT (site GAGGAACCTAG),0.235
16,CAGGAACCTTGGGTTCTAACCTGTTGCCT (site TAGGAACCTAG),0.216
17,CAGGCCACTTGGGTTCTAACCTGTTGCCT (site CAGGCCACTAG),0.945
18,CAGGCCACTTGGGTTCTAACCTGTTGCCT (site CCGGCCACTAG),0.0473
19,CAGGCCACTTGGGTTCTAACCTGTTGCCT (site CGGGCCACTAG),1.04
20,CAGGCCACTTGGGTTCTAACCTGTTGCCT (site CTGGCCACTAG),0.357
21,CAGTACTCTTGGGTTCTAACCTGTTGCCT (site CAGTAATCTAG),0.122
22,CAGTACTCTTGGGTTCTAACCTGTTGCCT (site CAGTACTCTAG),2.29

row,Sequence,recombinant barcode read abundance (log10)
1,CAGTACTCTTGGGTTCTAACCTGTTGCCT (site CAGTAGTCTAG),0.1
2,CAGTACTCTTGGGTTCTAACCTGTTGCCT (site CAGTATTCTAG),0.0289
3,CAGTGGCCTTGGGTTCTAACCTGTTGCCT (site CAGAGGCCTAG),0.0837
4,CAGTGGCCTTGGGTTCTAACCTGTTGCCT (site CAGCGGCCTAG),0.124
5,CAGTGGCCTTGGGTTCTAACCTGTTGCCT (site CAGGGGCCTAG),0.234
6,CAGTGGCCTTGGGTTCTAACCTGTTGCCT (site CAGTGGCCTAG),0.132
7,CAGTTCGCTTGGGTTCTAACCTGTTGCCT (site CAGTTAGCTAG),0.141
8,CAGTTCGCTTGGGTTCTAACCTGTTGCCT (site CAGTTCGCTAG),1.6
9,CAGTTCGCTTGGGTTCTAACCTGTTGCCT (site CAGTTGGCTAG),0.0461
10,CAGTTCGCTTGGGTTCTAACCTGTTGCCT (site CAGTTTGCTAG),0.0585
11,CAGTTTGCTTGGGTTCTAACCTGTTGCCT (site CAGTTAGCTAG),0.102
12,CAGTTTGCTTGGGTTCTAACCTGTTGCCT (site CAGTTCGCTAG),0.172
13,CAGTTTGCTTGGGTTCTAACCTGTTGCCT (site CAGTTGGCTAG),0
14,CAGTTTGCTTGGGTTCTAACCTGTTGCCT (site CAGTTTGCTAG),0.512
15,CATAACGCTTGGGTTCTAACCTGTTGCCT (site CATAACGCTAG),1.18
16,CATAACGCTTGGGTTCTAACCTGTTGCCT (site GCATCTACTTA),0.102
17,CATAGAGCTTGGGTTCTAACCTGTTGCCT (site CATAGAGCTAG),0.648
18,CATAGAGCTTGGGTTCTAACCTGTTGCCT (site CATAGGGCTCG),0.215
19,CATAGGGCTTGGGTTCTAACCTGTTGCCG (site CATAGAGCTAG),0.0324
20,CATAGGGCTTGGGTTCTAACCTGTTGCCG (site CATAGGGCTCG),1.03
21,CATAGTCCTTGGGTTCTAACCTGTTGCCA (site CATAGTCCTTG),0.299
22,CATAGTCCTTGGGTTCTAACCTGTTGCCA (site GTACAATCTCT),0.112

row,Sequence,recombinant barcode read abundance (log10)
1,CATCAGCCTTGGGTTCTAACCTGTTGCGT (site CATCAGCCTAC),1.63
2,CATCAGCCTTGGGTTCTAACCTGTTGCGT (site TATCAGCCTAA),0.174
3,CATCCATCTTGGGTTCTAACCTGTTGCAT (site CATCCATCTAT),0.883
4,CATCCATCTTGGGTTCTAACCTGTTGCAT (site TCGAGGCCTTA),0.328
5,CATCCTCCTTGGGTTCTAACCTGTTGCTT (site CAGCCTTCTAA),0.103
6,CATCCTCCTTGGGTTCTAACCTGTTGCTT (site CATCCTCCTAA),0.0487
7,CATCGATCTTGGGTTCTAACCTGTTGCGT (site CATCGATCTAC),1.6
8,CATCGATCTTGGGTTCTAACCTGTTGCGT (site CTTTGATCTAC),0.0816
9,CATCGGACTTGGGTTCTAACCTGTTGCGA (site AGGGCACCTCT),0.112
10,CATCGGACTTGGGTTCTAACCTGTTGCGA (site CATCGGACTTC),1.35
11,CATGAGACTTGGGTTCTAACCTGTTGCGG (site CATGAGACTCC),2.18
12,CATGAGACTTGGGTTCTAACCTGTTGCGG (site GCGATCCCTAA),0.0802
13,CATGAGCCTTGGGTTCTAACCTGTTGCCT (site CATAAGCCTAG),0.694
14,CATGAGCCTTGGGTTCTAACCTGTTGCCT (site CATCAGCCTAG),0.0278
15,CATGAGCCTTGGGTTCTAACCTGTTGCCT (site CATGAGCCTAG),2.23
16,CATGAGCCTTGGGTTCTAACCTGTTGCCT (site CATTAGCCTAG),0.196
17,CATGATTCTTGGGTTCTAACCTGTTGCCT (site CATAATTCTAG),0.0239
18,CATGATTCTTGGGTTCTAACCTGTTGCCT (site CATCATTCTAG),0.087
19,CATGATTCTTGGGTTCTAACCTGTTGCCT (site CATGATTCTAG),1.05
20,CATGATTCTTGGGTTCTAACCTGTTGCCT (site CATTATTCTAG),0.0435
21,CATGCTCCTTGGGTTCTAACCTGTTGCAT (site CATGCTCCTAG),0.168
22,CATGCTCCTTGGGTTCTAACCTGTTGCAT (site CATGCTCCTAT),0.194

# — the supplement of paper PMC11208160
